Test systems include ACHN; BT-549; DU-145; EKVX; HOP-62; HOP-92; MOLT-4; NCI/ADR-RES; OVCAR-4; OVCAR-8; PC-3; SK-MEL-28; SK-MEL-2; SN12C; SR; SW-620; T47D; TK-10; UACC-62.
Holding throughout (experiment): NCI anticancer screen, dose series, 48 h

These results are taken from ChEMBL document CHEMBL1201862, “PubChem BioAssay data set” (2004).

The structures appear in SMILES notation.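 48-hour exposure; five concentrations; linearly interpolated endpoints. GI50 is the concentration that inhibits growth by half.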 Calls of active or inactive are those of the source. Rule as the data show it: active = GI50 up to about 1.1 µM and inactive = higher.

`c1ccc(C2C(=P(c3ccccc3)(c3ccccc3)c3ccccc3)P=PC2[P+](c2ccccc2)(c2ccccc2)c2ccccc2)cc1.c1ccc([B-](c2ccccc2)(c2ccccc2)c2ccccc2)cc1` (stereo not given): the GI50 in the experiment on ACHN was 0.701 µM (active); in the experiment on BT-549 it was 0.721 µM (active); with DU-145, 0.5 µM (active); in the experiment on EKVX, 4.79 µM (inactive); in the experiment with HOP-62 it was 0.841 µM (active); in the experiment on HOP-92, 0.555 µM (active). Further, the GI50 in the experiment on MOLT-4 was 1.63 µM (inactive); with NCI/ADR-RES it was 3.48 µM (inactive); with OVCAR-4, 0.652 µM (active); in the experiment on OVCAR-8 it was 0.252 µM (active); in the experiment on PC-3 it was 0.471 µM (active); with SK-MEL-28, 1.85 µM (inactive). In addition, the GI50 in the experiment on SK-MEL-2 is 0.675 µM (active); in the experiment with SN12C it was 0.507 µM (active); in the experiment on SR, 0.966 µM (active); in the experiment with SW-620, 0.767 µM (active); in the experiment on T47D, 0.191 µM (active); in the experiment on TK-10 it was 0.762 µM (active). In addition, the GI50 in the experiment with UACC-62 is 2.44 µM (inactive).
As to `NCCCNC1(c2cc3ccccc3s2)CCCCC1`, the GI50 in the experiment on ACHN was 11.9 µM (inactive); with BT-549, 13.8 µM (inactive); in the experiment with DU-145, 12 µM (inactive); in the experiment with EKVX, 8.65 µM (inactive); in the experiment on HOP-62, 10.7 µM (inactive); with HOP-92, 11.6 µM (inactive). For the same compound, the GI50 with MOLT-4 was 3.29 µM (inactive); in the experiment with NCI/ADR-RES it was 13.5 µM (inactive); in the experiment with OVCAR-4, 11.1 µM (inactive); in the experiment with OVCAR-8, 9.62 µM (inactive); with PC-3, 7.13 µM (inactive); in the experiment on SK-MEL-28, 2.12 µM (inactive). The GI50 is 1.79 µM (inactive) in the experiment with SK-MEL-2; 10.5 µM (inactive) in the experiment on SN12C; 1.77 µM (inactive) with SR; 4.55 µM (inactive) in the experiment with SW-620; 2.58 µM (inactive) with T47D; 3.75 µM (inactive) with TK-10. For the same compound, in the experiment with UACC-62, the GI50 is 1.92 µM (inactive).
For the compound `CS(=O)(=O)c1ccc(/N=C/C=C/Nc2ccc(S(C)(=O)=O)cc2)cc1`, the GI50 in the experiment with ACHN, in the experiment on BT-549, in the experiment on DU-145, in the experiment with EKVX, in the experiment with HOP-62 and in the experiment with HOP-92 was > 100 µM (inactive) each time. For the same compound, the GI50 in the experiment with MOLT-4, with NCI/ADR-RES, in the experiment on OVCAR-4, with OVCAR-8, with PC-3 and in the experiment on SK-MEL-28 was > 100 µM (inactive) in each case. The GI50 in the experiment on SK-MEL-2, in the experiment with SN12C, with SR, in the experiment with SW-620, with T47D and in the experiment with TK-10 was > 100 µM (inactive) throughout. Besides, the GI50 with UACC-62 was > 100 µM (inactive).
As for `COC(=O)C1=C(C(=O)OC)C(Cc2ccccc2)(OO)OC1=O` (stereo not given), the GI50 with ACHN is 2.99 µM (inactive); with BT-549, 6.32 µM (inactive); with DU-145, 23 µM (inactive); in the experiment on EKVX, 11.3 µM (inactive); with HOP-92, 5.94 µM (inactive); in the experiment with MOLT-4 it was 3.64 µM (inactive). In addition, the GI50 with NCI/ADR-RES is 7.82 µM (inactive); with OVCAR-4, 16 µM (inactive); with OVCAR-8, 18.4 µM (inactive); in the experiment on PC-3, 13.1 µM (inactive); in the experiment on SK-MEL-28, 7.76 µM (inactive); in the experiment with SK-MEL-2, 5.65 µM (inactive). Besides, the GI50 in the experiment on SN12C was 4.22 µM (inactive); in the experiment with SR, 3.52 µM (inactive); with SW-620, 2.83 µM (inactive); in the experiment on T47D, 9.98 µM (inactive); with TK-10, 3.4 µM (inactive); in the experiment on UACC-62 it was 3.52 µM (inactive).
Regarding `Cn1c(=O)n2n(c1=O)Cc1cccc3cccc(c13)C2`, the GI50 in the experiment on ACHN, with BT-549, with DU-145, with EKVX, in the experiment with HOP-92 and with MOLT-4 was > 100 µM (inactive) throughout. Also, the GI50 in the experiment with NCI/ADR-RES, in the experiment with OVCAR-4, in the experiment on OVCAR-8, with PC-3, with SK-MEL-28 and in the experiment with SK-MEL-2 was > 100 µM (inactive) throughout. Moreover, the GI50 in the experiment on SN12C, in the experiment with SR, with SW-620, in the experiment with T47D, with TK-10 and in the experiment with UACC-62 was > 100 µM (inactive) throughout.
With `CC(=O)OCC1OC(n2c3c(cc(C#N)c2=S)CCCCCC3)C(OC(C)=O)C(OC(C)=O)C1OC(C)=O` (stereo not given), the GI50 was > 100 µM (inactive) with ACHN; > 100 µM (inactive) in the experiment with BT-549; > 100 µM (inactive) in the experiment with DU-145; > 100 µM (inactive) in the experiment on HOP-62; > 100 µM (inactive) in the experiment with HOP-92; 26.1 µM (inactive) in the experiment with MOLT-4. The GI50 is > 100 µM (inactive) in the experiment on NCI/ADR-RES; > 100 µM (inactive) in the experiment on OVCAR-4; 69.8 µM (inactive) in the experiment with OVCAR-8; > 100 µM (inactive) in the experiment with PC-3; > 100 µM (inactive) in the experiment on SK-MEL-28; > 100 µM (inactive) in the experiment with SK-MEL-2. Further, the GI50 in the experiment with SN12C is > 100 µM (inactive); with SR, 36.8 µM (inactive); in the experiment with T47D, 5.2 µM (inactive); in the experiment on TK-10 it was > 100 µM (inactive); with UACC-62 it was 54.7 µM (inactive).
For `CC(=O)OC[C@]1(C(=O)C(O)c2ccoc2)[C@H](C)CC[C@@]23COC(=O)C2=CCC[C@@H]31` (stereo not given in full), the GI50 in the experiment on ACHN, in the experiment with BT-549, in the experiment on DU-145, in the experiment on EKVX, with HOP-92 and with MOLT-4 was > 10 µM (inactive) throughout. The GI50 with NCI/ADR-RES, with OVCAR-4, with OVCAR-8, in the experiment with PC-3, with SK-MEL-2 and in the experiment on SN12C was > 10 µM (inactive) throughout. Besides, the GI50 in the experiment with SR, with SW-620, in the experiment on T47D, in the experiment on TK-10 and in the experiment with UACC-62 was > 10 µM (inactive) throughout.
In the case of `CC[C@@]1(O)C(=O)OCc2c1cc1n(c2=O)Cc2c-1nc1ccccc1c2/C=N\NC(=O)C(N)=O`, the GI50 in the experiment on ACHN is < 0.0151 µM (active); in the experiment on BT-549 it was 3.44 µM (inactive); in the experiment with DU-145 it was 0.0736 µM (active); in the experiment with EKVX, 19.5 µM (inactive); in the experiment on HOP-62, 0.107 µM (active); in the experiment with HOP-92, 0.222 µM (active). Also, the GI50 with MOLT-4 is < 0.0138 µM (active); in the experiment with NCI/ADR-RES, 1.6 µM (inactive); in the experiment with OVCAR-4, 38.3 µM (inactive); in the experiment with OVCAR-8, 0.248 µM (active); with PC-3, 4.36 µM (inactive); in the experiment on SK-MEL-28, 17.8 µM (inactive). For the same compound, the GI50 was 29 µM (inactive) in the experiment on SK-MEL-2; 0.172 µM (active) with SN12C; < 0.01 µM (active) with SR; 1.42 µM (inactive) in the experiment on SW-620; < 0.01 µM (active) with T47D; 43.6 µM (inactive) in the experiment on TK-10. In addition, in the experiment with UACC-62, the GI50 was 0.0332 µM (active).
With `CCN(CC)CCCNC(=O)c1cc2cc(NC(=O)c3cc4cc([N+](=O)[O-])ccc4[nH]3)ccc2[nH]1`, the GI50 in the experiment on ACHN was > 100 µM (inactive); in the experiment with BT-549, > 100 µM (inactive); with DU-145 it was > 100 µM (inactive); with EKVX, > 100 µM (inactive); in the experiment with HOP-62, 28.6 µM (inactive); in the experiment on HOP-92 it was 37.5 µM (inactive). Moreover, the GI50 was > 100 µM (inactive) in the experiment on NCI/ADR-RES; > 100 µM (inactive) in the experiment on OVCAR-4; > 100 µM (inactive) in the experiment with OVCAR-8; > 100 µM (inactive) in the experiment with PC-3; 30.3 µM (inactive) in the experiment on SK-MEL-28; > 100 µM (inactive) in the experiment with SK-MEL-2. Besides, the GI50 with SN12C is > 100 µM (inactive); in the experiment with SR, > 100 µM (inactive); in the experiment with SW-620, 68.2 µM (inactive); with T47D, > 100 µM (inactive); in the experiment on TK-10, > 100 µM (inactive); in the experiment on UACC-62 it was 32.8 µM (inactive).
Take `O=C(O)Cc1ccc2nc(COC(=O)c3ccccc3)sc2c1`: the GI50 with ACHN, with BT-549, with DU-145, with EKVX, with HOP-62 and with HOP-92 was > 100 µM (inactive) throughout. The GI50 with NCI/ADR-RES, in the experiment with OVCAR-4, in the experiment with OVCAR-8, in the experiment with PC-3, in the experiment on SK-MEL-28 and with SK-MEL-2 was > 100 µM (inactive) throughout. Moreover, the GI50 with SN12C, with SR, in the experiment with SW-620, with T47D, in the experiment on TK-10 and in the experiment on UACC-62 was > 100 µM (inactive) each time.
As for `COc1ccc2c(c1)C(=O)C1(C2)[C@H](c2ccccc2)C2C(=O)c3cc(OC)ccc3C2[C@H]1c1ccccc1` (stereo not given in full), the GI50 in the experiment on ACHN, in the experiment on BT-549, in the experiment on DU-145, in the experiment with EKVX, in the experiment with HOP-62 and with HOP-92 was > 100 µM (inactive) throughout. In addition, the GI50 in the experiment with MOLT-4 was > 100 µM (inactive); in the experiment on NCI/ADR-RES it was > 100 µM (inactive); with OVCAR-4, > 100 µM (inactive); in the experiment on OVCAR-8 it was > 100 µM (inactive); with PC-3 it was 16.6 µM (inactive); in the experiment with SK-MEL-28, > 100 µM (inactive). Moreover, the GI50 in the experiment on SN12C, in the experiment on SR, in the experiment with SW-620, in the experiment on T47D, in the experiment with TK-10 and in the experiment on UACC-62 was > 100 µM (inactive) throughout.
